Several values for one entry are separate records, joined by “and”; a condition that tells them apart may be missing. Equal values may be shown once.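 These data come from cells grown in 96-well plates and exposed to compound for 48 hours at five concentrations. GI50 is the concentration that inhibits growth by half. TGI is the concentration that stops growth completely.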
Tested on: A498 renal
Test: NCI anticancer screen, dose series, 48 h

| Structure (SMILES) | GI50 [µM] | TGI [µM] |
| --- | --- | --- |
| COc1ccccc1/C=N\N/C(N)=N\N=C\c1ccccc1OC | 0.372 | 19.4 |
| COc1cccc(CC(C)=C(c2ccc(OCCN(C)C)cc2)c2ccc(OCCN(C)C)cc2)c1 | 4.79 | 9.63 |
| COC(=O)COc1ccccc1/C=C1\N=C(c2ccccc2)N(c2cc(C(F)(F)F)ccc2Cl)C1=O | > 100 | > 100 |
| C=C1C(=O)OC2CC(C)C(C(CC(C)=O)OC(C)=O)=CCC12 (stereo unspecified) | – | 39.4 |
| C[N+](C)(C)CC1CCCc2ccccc2C1=O (stereo unspecified) | – | 27.6 |
| Cn1c(I)c(C#CCO[Si](C)(C)C(C)(C)C)c(=O)[nH]c1=O | 19.9 | 38 |
| Cc1ccc(SC2c3ccc(C)cc3Oc3nc(N)c(C#N)c(N)c32)cc1 (stereo unspecified) | 2.72 | 7.33 |
| O=C(Nc1ccc(Br)cc1F)c1cc(F)ccc1O | 0.172 | 0.667 |
| c1ccc(-c2nnc(-c3ccccn3)s2)nc1 | > 100 | > 100 |
| CN1CCN(C2CCN(C(=O)Nc3cc(Oc4ccc(NC(=O)C5(C(=O)Nc6ccc(F)cc6)CC5)c(F)c4)ccn3)CC2)CC1 | 0.315 | 1.38 |
| CCN1CCN(C(=O)[C@@]2(C)CC[C@]3(C)CC[C@]4(C)C(=CC(=O)[C@@H]5[C@@]6(C)CC[C@H](OC7C[C@@H](O)[C@@H](O)C(C)O7)C(C)(C)[C@@H]6CC[C@]54C)[C@@H]3C2)CC1 (stereo partly specified) | 8.96 | 17 |
| Nc1nn2cc(F)cnc2c1C(=O)Nc1cncc(F)c1N1CCC(C(=O)N2CCN(C3COC3)CC2)CC1 | 0.181 | 0.857 |

Tested on: MCF7 breast
Test: NCI anticancer screen, dose series, 48 h

| Structure (SMILES) | GI50 [µM] | TGI |
| --- | --- | --- |
| COc1ccccc1/C=N\N/C(N)=N\N=C\c1ccccc1OC | 0.254 | 4.36 µM |
| COc1cccc(CC(C)=C(c2ccc(OCCN(C)C)cc2)c2ccc(OCCN(C)C)cc2)c1 | 0.926 | 3.85 µM |
| COC(=O)COc1ccccc1/C=C1\N=C(c2ccccc2)N(c2cc(C(F)(F)F)ccc2Cl)C1=O | 39.1 | > 100 µM |
| C=C1C(=O)OC2CC(C)C(C(CC(C)=O)OC(C)=O)=CCC12 (stereo unspecified) | – | 18.2 µM |
| C[N+](C)(C)CC1CCCc2ccccc2C1=O (stereo unspecified) | 0.511 | 5.29 µM and 2.23 µM |
| Cn1c(I)c(C#CCO[Si](C)(C)C(C)(C)C)c(=O)[nH]c1=O | 15 | 33.2 µM |
| Cc1ccc(SC2c3ccc(C)cc3Oc3nc(N)c(C#N)c(N)c32)cc1 (stereo unspecified) | 1.94 | 4.74 µM |
| O=C(Nc1ccc(Br)cc1F)c1cc(F)ccc1O | 1.29 | 7.14 µM |
| c1ccc(-c2nnc(-c3ccccn3)s2)nc1 | 0.788 | > 100 µM |
| CN1CCN(C2CCN(C(=O)Nc3cc(Oc4ccc(NC(=O)C5(C(=O)Nc6ccc(F)cc6)CC5)c(F)c4)ccn3)CC2)CC1 | 1.09 | > 10 µM |
| CCN1CCN(C(=O)[C@@]2(C)CC[C@]3(C)CC[C@]4(C)C(=CC(=O)[C@@H]5[C@@]6(C)CC[C@H](OC7C[C@@H](O)[C@@H](O)C(C)O7)C(C)(C)[C@@H]6CC[C@]54C)[C@@H]3C2)CC1 (stereo partly specified) | 1.79 | 7.54 µM |
| Nc1nn2cc(F)cnc2c1C(=O)Nc1cncc(F)c1N1CCC(C(=O)N2CCN(C3COC3)CC2)CC1 | 0.0608 | > 100 µM |

Tested on: SR leukemia
Test: NCI anticancer screen, dose series, 48 h

| Structure (SMILES) | GI50 [µM] | TGI [µM] |
| --- | --- | --- |
| COc1ccccc1/C=N\N/C(N)=N\N=C\c1ccccc1OC | 0.0319 | 0.74 |
| COc1cccc(CC(C)=C(c2ccc(OCCN(C)C)cc2)c2ccc(OCCN(C)C)cc2)c1 | 0.787 | 2.22 |
| COC(=O)COc1ccccc1/C=C1\N=C(c2ccccc2)N(c2cc(C(F)(F)F)ccc2Cl)C1=O | 24 | 70.5 |
| C=C1C(=O)OC2CC(C)C(C(CC(C)=O)OC(C)=O)=CCC12 (stereo unspecified) | – | 15.5 |
| C[N+](C)(C)CC1CCCc2ccccc2C1=O (stereo unspecified) | – | 8.08 |
| Cn1c(I)c(C#CCO[Si](C)(C)C(C)(C)C)c(=O)[nH]c1=O | 1.53 | 3.6 |
| Cc1ccc(SC2c3ccc(C)cc3Oc3nc(N)c(C#N)c(N)c32)cc1 (stereo unspecified) | 2.16 | 5.54 |
| O=C(Nc1ccc(Br)cc1F)c1cc(F)ccc1O | 0.476 | > 100 |
| c1ccc(-c2nnc(-c3ccccn3)s2)nc1 | > 100 | > 100 |
| CN1CCN(C2CCN(C(=O)Nc3cc(Oc4ccc(NC(=O)C5(C(=O)Nc6ccc(F)cc6)CC5)c(F)c4)ccn3)CC2)CC1 | 0.53 | 1.77 |
| CCN1CCN(C(=O)[C@@]2(C)CC[C@]3(C)CC[C@]4(C)C(=CC(=O)[C@@H]5[C@@]6(C)CC[C@H](OC7C[C@@H](O)[C@@H](O)C(C)O7)C(C)(C)[C@@H]6CC[C@]54C)[C@@H]3C2)CC1 (stereo partly specified) | 1.06 | 2.57 |
| Nc1nn2cc(F)cnc2c1C(=O)Nc1cncc(F)c1N1CCC(C(=O)N2CCN(C3COC3)CC2)CC1 | 0.0619 | 0.894 |

Tested on: SK-MEL-5 melanoma
Test: NCI anticancer screen, dose series, 48 h

| Structure (SMILES) | GI50 [µM] | TGI [µM] |
| --- | --- | --- |
| COc1ccccc1/C=N\N/C(N)=N\N=C\c1ccccc1OC | 0.371 | 4.14 |
| COc1cccc(CC(C)=C(c2ccc(OCCN(C)C)cc2)c2ccc(OCCN(C)C)cc2)c1 | 4.75 | 9.26 |
| COC(=O)COc1ccccc1/C=C1\N=C(c2ccccc2)N(c2cc(C(F)(F)F)ccc2Cl)C1=O | 42.9 | > 100 |
| C=C1C(=O)OC2CC(C)C(C(CC(C)=O)OC(C)=O)=CCC12 (stereo unspecified) | – | 32 |
| C[N+](C)(C)CC1CCCc2ccccc2C1=O (stereo unspecified) | – | 15.5 |
| Cn1c(I)c(C#CCO[Si](C)(C)C(C)(C)C)c(=O)[nH]c1=O | 17.1 | 31.3 |
| Cc1ccc(SC2c3ccc(C)cc3Oc3nc(N)c(C#N)c(N)c32)cc1 (stereo unspecified) | 1.64 | 3.1 |
| O=C(Nc1ccc(Br)cc1F)c1cc(F)ccc1O | 0.227 | 0.541 |
| c1ccc(-c2nnc(-c3ccccn3)s2)nc1 | > 100 | > 100 |
| CN1CCN(C2CCN(C(=O)Nc3cc(Oc4ccc(NC(=O)C5(C(=O)Nc6ccc(F)cc6)CC5)c(F)c4)ccn3)CC2)CC1 | 2.43 | 6.36 |
| CCN1CCN(C(=O)[C@@]2(C)CC[C@]3(C)CC[C@]4(C)C(=CC(=O)[C@@H]5[C@@]6(C)CC[C@H](OC7C[C@@H](O)[C@@H](O)C(C)O7)C(C)(C)[C@@H]6CC[C@]54C)[C@@H]3C2)CC1 (stereo partly specified) | 1.56 | 4.6 |
| Nc1nn2cc(F)cnc2c1C(=O)Nc1cncc(F)c1N1CCC(C(=O)N2CCN(C3COC3)CC2)CC1 | 0.428 | 1.77 |

Tested on: EKVX NSCLC
Test: NCI anticancer screen, dose series, 48 h

| Structure (SMILES) | GI50 [µM] | TGI [µM] |
| --- | --- | --- |
| COc1ccccc1/C=N\N/C(N)=N\N=C\c1ccccc1OC | 0.574 | 14.3 |
| COc1cccc(CC(C)=C(c2ccc(OCCN(C)C)cc2)c2ccc(OCCN(C)C)cc2)c1 | 4.09 | 8.52 |
| COC(=O)COc1ccccc1/C=C1\N=C(c2ccccc2)N(c2cc(C(F)(F)F)ccc2Cl)C1=O | > 100 | > 100 |
| C=C1C(=O)OC2CC(C)C(C(CC(C)=O)OC(C)=O)=CCC12 (stereo unspecified) | – | 26.6 |
| C[N+](C)(C)CC1CCCc2ccccc2C1=O (stereo unspecified) | – | 14.5 |
| Cn1c(I)c(C#CCO[Si](C)(C)C(C)(C)C)c(=O)[nH]c1=O | 17.5 | 32.8 |
| Cc1ccc(SC2c3ccc(C)cc3Oc3nc(N)c(C#N)c(N)c32)cc1 (stereo unspecified) | 1.59 | 3.09 |
| O=C(Nc1ccc(Br)cc1F)c1cc(F)ccc1O | 1.3 | 7.38 |
| c1ccc(-c2nnc(-c3ccccn3)s2)nc1 | > 100 | > 100 |
| CN1CCN(C2CCN(C(=O)Nc3cc(Oc4ccc(NC(=O)C5(C(=O)Nc6ccc(F)cc6)CC5)c(F)c4)ccn3)CC2)CC1 | > 1.99 | > 8.76 |
| CCN1CCN(C(=O)[C@@]2(C)CC[C@]3(C)CC[C@]4(C)C(=CC(=O)[C@@H]5[C@@]6(C)CC[C@H](OC7C[C@@H](O)[C@@H](O)C(C)O7)C(C)(C)[C@@H]6CC[C@]54C)[C@@H]3C2)CC1 (stereo partly specified) | 3.51 | 10.4 |
| Nc1nn2cc(F)cnc2c1C(=O)Nc1cncc(F)c1N1CCC(C(=O)N2CCN(C3COC3)CC2)CC1 | 0.512 | > 100 |

From PubChem BioAssay (NCI)
